We go through five compounds from patent publication US20160175302A1 (AB SCIENCE, priority 2014, published 2016).

Data set [1] concerns Gastric cancer cell line AGS. Description: Colorimetric cell proliferation and viability assay (CellTiter-Blue), AGS. The following applies: 72 h, read-out: IC50, agent alone. Background: Resazurin is reduced to fluorescent resorufin, in cell work by metabolically active cells.
For data set [2] the following is noted: clinically achievable concentrations, plasma; read-out: Cmax (reported / approximate, measured in plasma); cited from earlier work.
Data set [3] has as its system Gastric cancer cell line HGC-27. In words: Colorimetric cell proliferation and viability assay (CellTiter-Blue), HGC-27. Conditions: Homo sapiens, HGC-27, 72 h, read-out: IC50, agent alone.

SMILES strings stand for the structures. Where only a bound is given, the exact number is not on record here.

One may read the IC50 as the concentration needed to halve the response being measured. As to `COc1cc([C@@H]2c3cc4c(cc3[C@@H](O[C@@H]3O[C@@H]5CO[C@@H](C)O[C@H]5[C@H](O)[C@H]3O)[C@H]3COC(=O)[C@H]23)OCO4)cc(OC)c1O` [Etoposide], the half-inhibitory concentration (IC50) was determined as 10 µM in data set [1] and 20 µM in data set [3]. Moreover, in data set [2], the Cmax is ~34 µM.

In the case of `O=c1[nH]cc(F)c(=O)[nH]1` [5-FU, 5-fluorouracil], the IC50 worked out at 100 µM in data set [1] and 1000 µM in data set [3]. Moreover, in data set [2], the Cmax is 60 to 200 µM.

With `CCc1c2c(nc3ccc(OC(=O)N4CCC(N5CCCCC5)CC4)cc13)-c1cc3c(c(=O)n1C2)COC(=O)[C@]3(O)CC` [Irinotecan], the concentration for half-maximal inhibition (IC50) in data set [1] was 20 µM; in data set [3], > 100 µM. For the same compound, the Cmax in data set [2] is 1 to 10 µM.

With `CC[C@]1(O)C[C@H]2CN(CCc3c([nH]c4ccccc34)[C@@](C(=O)OC)(c3cc4c(cc3OC)N(C=O)[C@H]3[C@@](O)(C(=O)OC)[C@H](OC(C)=O)[C@]5(CC)C=CCN6CC[C@]43[C@@H]65)C2)C1` [Vincristin], the values for the IC50 in data set [1] and in data set [3] were > 1 µM and 0.1 to 1 µM, respectively.

In the case of `Cc1ccc(NC(=O)c2ccc(CN3CCN(C)CC3)cc2)cc1Nc1nc(-c2cccnc2)cs1` [masitinib, 4-(4-methylpiperazin-1-ylmethyl)-N-[4-methyl-3-(4-pyridin-3ylthiazol-2-ylamino)phenyl]benzamide], the IC50 in data set [1] and in data set [3] was 5 to 10 µM throughout.
